Reference: ChEMBL document CHEMBL4229400, “Covalent inhibitors of nicotinamide N-methyltransferase (NNMT) provide evidence for target engagement challenges in situ” (Bioorg Med Chem Lett, 2018)
Positions count from the first letter of the chain named. Calls of active or inactive are those of the source. The calls are words filed in the database; no cut-off is given here.

Tests used:
[1] = target: T1, Nicotinamide N-methyltransferase (Homo sapiens, UniProt P40261); assay: Inhibition of NNMT in human 786-O cell lysate using d4-nicotinamide as substrate pretreated for 1 hr at 3 mins post 10 uM SAM addition followed by substrate addition measured after 15 to 30 mins by LC-MS analysis
T1 sequence (P40261 whole entry): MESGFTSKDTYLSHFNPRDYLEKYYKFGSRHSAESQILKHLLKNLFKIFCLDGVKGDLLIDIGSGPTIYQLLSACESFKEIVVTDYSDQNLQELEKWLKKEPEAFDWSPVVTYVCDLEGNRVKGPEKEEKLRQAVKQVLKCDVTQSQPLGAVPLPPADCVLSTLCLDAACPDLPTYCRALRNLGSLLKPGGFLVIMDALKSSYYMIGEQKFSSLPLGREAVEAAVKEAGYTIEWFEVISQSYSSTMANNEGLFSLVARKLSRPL

[2] = target: T1, Nicotinamide N-methyltransferase; assay: Inhibition of NNMT in human 786-O cell lysate using d4-nicotinamide as substrate pretreated for 1 hr at 3 mins post 40 uM SAM addition followed by substrate addition measured after 15 to 30 mins by LC-MS analysis
[3] = target: T1, Nicotinamide N-methyltransferase; assay: Inhibition of NNMT in human 786-O cell lysate using d4-nicotinamide as substrate preincubated for 1 hr followed by substrate and SAM addition measured after 15 to 30 mins by LC-MS analysis
[4] = target: T2, Aldehyde dehydrogenase 1A1 (Homo sapiens) (UniProt P00352); assay: Binding affinity to ALDH1A1 cysteine residue in human 786-O cell soluble proteomic lysate at 5 uM incubated for 1 hr followed by cell lysis by IA-alkyne probe based isoTOP-ABPP analysis
T2 sequence (whole entry): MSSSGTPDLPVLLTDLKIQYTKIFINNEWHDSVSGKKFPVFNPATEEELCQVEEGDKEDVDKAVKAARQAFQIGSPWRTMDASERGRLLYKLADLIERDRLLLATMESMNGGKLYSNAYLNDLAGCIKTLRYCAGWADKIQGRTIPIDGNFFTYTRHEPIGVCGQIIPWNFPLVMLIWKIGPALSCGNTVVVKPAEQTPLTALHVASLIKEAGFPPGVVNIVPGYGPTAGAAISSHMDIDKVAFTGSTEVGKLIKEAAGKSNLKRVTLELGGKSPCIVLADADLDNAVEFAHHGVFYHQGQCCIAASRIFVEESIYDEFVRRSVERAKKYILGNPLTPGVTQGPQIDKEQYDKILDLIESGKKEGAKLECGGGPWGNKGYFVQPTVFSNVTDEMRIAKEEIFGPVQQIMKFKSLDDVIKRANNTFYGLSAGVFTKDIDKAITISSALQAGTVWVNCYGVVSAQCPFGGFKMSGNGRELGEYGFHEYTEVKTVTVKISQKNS

[5] = system: T3, Nicotinamide N-methyltransferase (Homo sapiens), P40261 [C165A]; assay: Inhibition of NNMT C165A mutant in human 786-O cell lysate using d4-nicotinamide as substrate preincubated for 1 hr followed by substrate and SAM addition measured after 15 to 30 mins by LC-MS analysis
T3 sequence (whole entry): T1 sequence (P40261 whole entry) with C165A

[6] = target: T4, Heme oxygenase 2 (Homo sapiens) (UniProt P30519); assay: Binding affinity to HMOX2 cysteine residue in human 786-O cell soluble proteomic lysate at 5 uM incubated for 1 hr followed by cell lysis by IA-alkyne probe based isoTOP-ABPP analysis
T4 sequence (whole entry): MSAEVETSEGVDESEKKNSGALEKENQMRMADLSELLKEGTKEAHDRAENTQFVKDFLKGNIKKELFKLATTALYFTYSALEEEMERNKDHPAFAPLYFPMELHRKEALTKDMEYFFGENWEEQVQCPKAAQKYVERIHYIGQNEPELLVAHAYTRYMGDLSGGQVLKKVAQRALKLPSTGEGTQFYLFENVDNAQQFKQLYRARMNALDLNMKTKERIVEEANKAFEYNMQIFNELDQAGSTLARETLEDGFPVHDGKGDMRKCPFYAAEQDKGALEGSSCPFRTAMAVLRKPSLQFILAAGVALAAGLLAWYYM

[7] = target: T1, Nicotinamide N-methyltransferase; assay: Inhibition of SAH-rhodamine binding to NNMT in human 786-O cell soluble proteomic lysate preincubated for 1 hr followed by SAH-rhodamine addition measured after 5 mins by Gel-based ABPP analysis
[8] = target: T5, Mitochondrial-processing peptidase subunit alpha (Homo sapiens) (UniProt Q10713); assay: Binding affinity to PMPCA cysteine residue in human 786-O cell soluble proteomic lysate at 5 uM incubated for 1 hr followed by cell lysis by IA-alkyne probe based isoTOP-ABPP analysis
T5 sequence (whole entry): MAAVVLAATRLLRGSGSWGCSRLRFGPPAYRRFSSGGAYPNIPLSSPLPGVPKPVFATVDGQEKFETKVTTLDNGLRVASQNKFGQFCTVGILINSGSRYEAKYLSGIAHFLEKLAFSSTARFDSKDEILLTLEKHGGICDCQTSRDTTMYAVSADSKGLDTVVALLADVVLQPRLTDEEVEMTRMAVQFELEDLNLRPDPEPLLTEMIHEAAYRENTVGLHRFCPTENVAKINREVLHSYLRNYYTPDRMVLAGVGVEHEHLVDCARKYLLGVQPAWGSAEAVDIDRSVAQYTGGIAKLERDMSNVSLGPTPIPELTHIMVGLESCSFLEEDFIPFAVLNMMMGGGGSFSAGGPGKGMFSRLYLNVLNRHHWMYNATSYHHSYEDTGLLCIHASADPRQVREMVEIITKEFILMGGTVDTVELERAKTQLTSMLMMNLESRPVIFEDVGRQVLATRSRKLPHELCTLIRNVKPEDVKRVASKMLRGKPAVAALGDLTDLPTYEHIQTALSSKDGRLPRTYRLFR

CC(C)CCN(C(=O)CCl)c1cc(C(=O)NCc2cccc([N+](=O)[O-])c2)cc(C(F)(F)F)c1
IC50 [1]: 4 µM
IC50 [2]: 10 µM
IC50 [3]: 0.18 µM
Activity [4]: Active
inhibition [5]: inactive
Activity [6]: Active
IC50 [7]: 0.35 µM

O=C(Nc1cccnc1Cl)c1cc(N(CCCc2ccccc2)C(=O)CCl)cc(C(F)(F)F)c1
IC50 [3]: 17 µM
Activity [8]: Active
Activity [4]: Active
Activity [6]: Active
IC50 [7]: 22 µM
